Values quoted from earlier work, collected in US20220339295A1, “FULLERENE GALLIUM P[…] METHODS” (Exothule Inc., priority 2020, published 2022).

Legend:
[1] = biological target: transferrin (Homo sapiens, UniProt P02787); conditions: relative to Fe3+
Chain of transferrin (P02787 20-698, species assumed): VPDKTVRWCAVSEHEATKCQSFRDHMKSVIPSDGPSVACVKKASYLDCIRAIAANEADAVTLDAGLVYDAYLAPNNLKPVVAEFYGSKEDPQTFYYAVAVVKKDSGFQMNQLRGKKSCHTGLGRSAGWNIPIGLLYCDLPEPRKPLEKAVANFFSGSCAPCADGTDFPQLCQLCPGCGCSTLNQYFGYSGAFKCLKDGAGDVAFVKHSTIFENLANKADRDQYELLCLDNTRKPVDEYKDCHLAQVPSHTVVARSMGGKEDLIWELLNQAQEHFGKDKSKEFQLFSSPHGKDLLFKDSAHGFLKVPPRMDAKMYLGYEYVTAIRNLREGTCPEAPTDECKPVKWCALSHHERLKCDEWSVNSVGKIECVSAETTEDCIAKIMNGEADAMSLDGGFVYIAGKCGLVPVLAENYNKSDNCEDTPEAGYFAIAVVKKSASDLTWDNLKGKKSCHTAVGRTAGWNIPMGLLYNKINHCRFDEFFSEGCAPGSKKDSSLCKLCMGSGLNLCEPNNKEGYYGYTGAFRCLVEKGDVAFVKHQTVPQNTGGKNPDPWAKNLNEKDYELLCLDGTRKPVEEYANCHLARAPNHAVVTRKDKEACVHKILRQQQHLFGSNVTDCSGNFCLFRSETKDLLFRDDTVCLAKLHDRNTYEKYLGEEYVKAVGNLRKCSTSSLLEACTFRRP

## [Ga] [gallium]
After 24 hours
  gallium excreted in urine: 69%
In 48 hours
  gallium excreted: 91%
[1]
  binding in transferrin, times less effectively than Fe3+: 300 times
